Test results from US10336774B2, “N-azaspirocycloalkane substituted N-heteroaryl compounds and compositions for inhibiting the activity of SHP2” (NOVARTIS AG, priority 2014, dated 2019).

Biological target: SHP2 (Homo sapiens (Human), UniProt Q06124)
Assay: SHP2 Allosteric Inhibition Assay
Type: biochemical
Text: SHP2 Allosteric Inhibition Assay SHP2 is allosterically activated through binding of bis-tyrosyl-phorphorylated peptides to its Src Homology 2 (SH2) domains. The latter activation step leads to the release of the auto-inhibitory interface of SHP2, which in turn renders the SHP2 protein tyrosine phosphatase (PTP) active and available for substrate recognition and reaction catalysis. The catalytic activity of SHP2 was monitored using the surrogate substrate DiFMUP in a prompt fluorescence assay format. […] After 30-60 minutes incubation at 25° C., the surrogate substrate DiFMUP (Invitrogen, cat# D6567) was added to the reaction and incubated at 25° C. for 30 minutes. […] The inhibitor dose response curves were analyzed using normalized IC50 regression curve fitting with control based normalization.

[1] = 0.5 nM SHP2 activated with 0.5 μM peptide IRS1_pY1172(dPEG8)pY1222, surrogate substrate DiFMUP, fluorescence

Chain of SHP2 (Q06124 whole entry): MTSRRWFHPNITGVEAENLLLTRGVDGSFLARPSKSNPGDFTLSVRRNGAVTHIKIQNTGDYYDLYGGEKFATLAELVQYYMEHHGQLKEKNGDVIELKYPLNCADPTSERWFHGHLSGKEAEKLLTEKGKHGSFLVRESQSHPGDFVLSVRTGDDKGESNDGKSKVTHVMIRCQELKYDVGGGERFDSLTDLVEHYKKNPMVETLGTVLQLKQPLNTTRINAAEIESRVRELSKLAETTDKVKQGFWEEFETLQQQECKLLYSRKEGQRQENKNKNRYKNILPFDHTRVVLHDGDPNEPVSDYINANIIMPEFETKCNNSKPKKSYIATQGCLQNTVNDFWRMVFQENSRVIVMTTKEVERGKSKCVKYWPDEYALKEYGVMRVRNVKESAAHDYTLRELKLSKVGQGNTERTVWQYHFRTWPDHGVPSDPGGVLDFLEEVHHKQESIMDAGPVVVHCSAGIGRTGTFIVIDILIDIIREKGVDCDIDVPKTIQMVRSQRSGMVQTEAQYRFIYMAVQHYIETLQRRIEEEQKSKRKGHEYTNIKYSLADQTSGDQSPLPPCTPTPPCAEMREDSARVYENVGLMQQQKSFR

SMILES | IC50 [1] [nM] | IC50 (unit given as M, TFA salt before chiral separation) [nM]
NC(=O)c1cccc(Sc2ncc(N3CCC4(CCC[C@H]4N)CC3)nc2N)c1Cl [Example 40, (R)-3-((3-amino-5-(1-amino-8-azaspiro[4.5]decan-8-yl)pyrazin-2-yl)thio)-2-chlorobenzamide] | 16 | 
Nc1nc(N2CCC3(CC2)C[C@@H](O)C[C@H]3N)cnc1Sc1ccnc(N)c1Cl [Example 41, (2R,4R)-4-amino-8-(6-amino-5-((2-amino-3-chloropyridin-4-yl)thio)pyrazin-2-yl)-8-azaspiro[4.5]decan-2-ol] | 7 | 
Nc1nc(N2CCC3(CC2)C[C@@H](O)C[C@H]3N)cnc1Sc1cccnc1C(F)(F)F [Example 42] | 7 | 
Nc1nc(N2CCC3(CC2)C[C@H](O)C[C@H]3N)cnc1Sc1cccnc1C(F)(F)F [Example 43] | 6 | 
Nc1nc(N2CCC3(CC2)C[C@@H](O)C[C@@H]3N)cnc1Sc1cccnc1C(F)(F)F [Example 44] | 135 | 
CO[C@@H]1C[C@@H](N)C2(CCN(c3cnc(Sc4ccnc(N)c4Cl)c(N)n3)CC2)C1 [Example 45] | 44 | 
CO[C@@H]1C[C@@H](N)C2(CCN(c3cnc(Sc4ccnc(Cl)c4Cl)c(N)n3)CC2)C1 [Example 46] | 38 | 
Nc1nc(N2CCC3(CC2)CC(F)(F)CC3N)cnc1Sc1cccnc1C(F)(F)F (stereo not drawn) [Example 47] | 21 | 
CO[C@H]1C[C@@H](N)C2(CCN(c3cnc(Sc4cccnc4C(F)(F)F)c(N)n3)CC2)C1 [Example 48] | 9 | 
CN[C@@H]1C[C@H](O)CC12CCN(c1cnc(Sc3cccnc3C(F)(F)F)c(N)n1)CC2 [Example 49] | 234 | 
NC1=NC(=O)CC12CCN(c1cnc(Sc3cccnc3C(F)(F)F)c(N)n1)CC2 [Example 50] | 610 | 
Nc1cc(Sc2ncc(N3CCC4(CCC[C@H]4N)CC3)nc2N)c(Cl)cn1 [Example 51] | 10 | 
Nc1nc(N2CCC3(CC2)COC[C@H]3N)cnc1Sc1ccnc(N)c1Cl [Example 52] | 7 | 
Nc1nc(N2CCC3(CC2)COC[C@@H]3N)cnc1Sc1ccnc(N)c1Cl [Example 53] | 298 | 
Nc1nc(N2CCC3(CC2)COC[C@H]3N)cnc1Sc1cccnc1Cl [Example 54] | 10 | 
Nc1nc(N2CCC3(CC2)COC[C@H]3N)cnc1Sc1ccnnc1Cl [Example 55] | 73 | 
C[C@@H]1CCC2(CCN(c3cnc(Sc4ccnc(N)c4Cl)c(N)n3)CC2)[C@@H]1N [Example 56] | 9 | 
Nc1nc(N2CCC3(CC2)C[C@H](O)C[C@H]3N)cnc1Sc1ccnc(Cl)c1Cl [Example 57] | 3 | 
Nc1nc(N2CCC3(CC2)C[C@@H](O)C[C@H]3N)cnc1Sc1ccnc(Cl)c1Cl [Example 58] | 4 | 
CO[C@H]1C[C@@H](N)C2(CCN(c3cnc(Sc4ccnc(N)c4Cl)c(N)n3)CC2)C1 [Example 59] | 10 | 
CO[C@H]1C[C@@H](N)C2(CCN(c3cnc(Sc4ccnc(Cl)c4Cl)c(N)n3)CC2)C1 [Example 60] | 4 | 
C[C@@H]1C[C@@H](N)C2(CCN(c3cnc(Sc4cccnc4C(F)(F)F)c(N)n3)CC2)C1 [Example 61] | 7 | 
C[C@@H]1C[C@H](N)C2(CCN(c3cnc(Sc4cccnc4C(F)(F)F)c(N)n3)CC2)C1 [Example 62] | 100 | 

SMILES | IC50 [1] [nM] | IC50 (unit given as M, TFA salt before chiral separation) [nM]
Nc1nc(N2CCC3(CC2)COC[C@H]3N)cnc1Sc1ccnc(Cl)c1Cl [Example 63] | 7 | 
Nc1nc(N2CCC3(CC2)COC[C@H]3N)cnc1Sc1ccnc(F)c1Cl [Example 64] | 13 | 
Nc1nc(N2CCC3(CCC[C@H]3N)CC2)cnc1Sc1cc(F)ncc1Cl [Example 65] | 310 | 
CC(C)C(=O)O[C@@H]1C[C@@H](N)C2(CCN(c3cnc(Sc4ccnc(Cl)c4Cl)c(N)n3)CC2)C1 [Example 66] | 65 | 
Nc1nc(N2CCC3(CC2)CC(F)(F)C[C@H]3N)cnc1Sc1ccnc(N)c1Cl [Example 67] | 10 | 
C[C@H]1C[C@@H](N)C2(CCN(c3cnc(Sc4ccnc(N)c4Cl)c(N)n3)CC2)C1 [Example 70, (1R,3R)-8-(6-amino-5-((2-amino-3-chloropyridin-4-yl)thio)pyrazin-2-yl)-3-methyl-8-azaspiro[4.5]decan-1-amine] | 5 | 
C[C@@H]1C[C@@H](N)C2(CCN(c3cnc(Sc4ccnc(N)c4Cl)c(N)n3)CC2)C1 [Example 71, (1R,3S)-8-(6-amino-5-((2-amino-3-chloropyridin-4-yl)thio)pyrazin-2-yl)-3-methyl-8-azaspiro[4.5]decan-1-amine] | 5 | 
NC1=NCC2(CCN(c3cnc(Sc4cccnc4C(F)(F)F)c(N)n3)CC2)O1 [Example 72, 8-(6-amino-5-((2-(trifluoromethyl)pyridin-3-yl)thio)pyrazin-2-yl)-1-oxa-3,8-diazaspiro[4.5]dec-2-en-2-amine] | 193 | 
NC1=NC2(CCN(c3cnc(Sc4ccnc(Cl)c4Cl)c(N)n3)CC2)CO1 [Example 73] | 20 | 
NC1=NC2(CCN(c3cnc(Sc4cccnc4C(F)(F)F)c(N)n3)CC2)CO1 [Example 74] | 56 | 
CN(C)c1nccc(Sc2ncc(N3CCC4(CCC[C@H]4N)CC3)nc2N)c1Cl [Example 75, (R)-8-(6-amino-5-((3-chloro-2-(dimethylamino)pyridin-4-yl)thio)pyrazin-2-yl)-8-azaspiro[4.5]decan-1-amine] | 10 | 
Nc1nc(N2CCC3(CCC[C@H]3N)CC2)cnc1Sc1ccnnc1Cl [Example 76] | 78 | 
COc1nccc(Sc2ncc(N3CCC4(CCC[C@H]4N)CC3)nc2N)c1Cl [Example 78] | 15 | 
Nc1nc(N2CCC3(CCC[C@H]3N)CC2)cnc1Sc1ccncc1C(F)(F)F [Example 80] | 42 | 
Nc1nc(N2CCC3(CCC[C@H]3N)CC2)cnc1Sc1cc[nH]c(=O)c1Cl [Example 81, (R)-4-((3-amino-5-(1-amino-8-azaspiro[4.5]decan-8-yl)pyrazin-2-yl)thio)-3-chloropyridin-2(1H)-one] | 20 | 
CC1CCC2(CCN(c3cnc(Sc4cccnc4C(F)(F)F)c(N)n3)CC2)[C@@H]1N (stereo partly drawn) [Example 86a/b, (1R)-8-(6-amino-5-((2-(trifluoromethyl)pyridin-3-yl)thio)pyrazin-2-yl)-2-methyl-8-azaspiro[4.5]decan-1-amine] |  | 1
Nc1cc(Sc2ncc(N3CCC4(CCC[C@H]4N)CC3)nc2N)c(Cl)c(Cl)n1 [Example 87] | 9.3 | 
C[C@@H]1OCC2(CCN(c3cnc(Sc4cc(N)nc(Cl)c4Cl)c(N)n3)CC2)[C@@H]1N [Example 88] | 4 | 
Nc1cc(Sc2ncc(N3CCC4(CC3)COC[C@H]4N)nc2N)c(Cl)c(Cl)n1 [Example 89] | 11.8 | 
Nc1cc(Sc2ncc(N3CCC4(CC3)C[C@H](O)C[C@H]4N)nc2N)c(Cl)c(Cl)n1 [Example 90] | 4 | 
Nc1nc(N2CCC3(CC2)C[C@@H](F)C[C@H]3N)cnc1Sc1ccnc(N)c1Cl [Example 91] | 8 | 
Nc1nc(N2CCC3(CC2)C[C@H](F)C[C@H]3N)cnc1Sc1ccnc(N)c1Cl [Example 92] | 10 | 
